Here are results for 14 compounds from patent publication US11466047B2, “Cyclic di-nucleotide compounds as sting agonists” (Merck Sharp & Dohme Corp., priority 2017, dated 2022).

As a reminder, the EC50 is the concentration giving half of the maximal effect.

The test system of one assay is THP1 cells. Description: IFN-β secretion in THP1 cell culture (5 h). The format is cell-based, human. As to conditions: 30 μM compound, relative to 2′3′-cGAMP at 30 μM; for activation at 30 µM: Homo sapiens, THP-1, 5 h, read-out: % Effect at 30 μM relative to 2′3′-cGAMP. Here is the method: The ability of compounds to stimulate the secretion of interferon-beta from THP1 cells was measured using a human IFN-β AlphaLISA kit (Perkin Elmer, Cat. No. AL265F). The basic protocol is as follows:
A Labcyte Echo 550 acoustic dispenser was used to transfer 120 nL of compound dissolved in DMSO into the wells of an empty, sterile 384-well microplate, (Corning, Cat. No. 3712). THP1 cells (American Type Culture Collection, Cat. No. TIB202) previously frozen in Recovery Medium (Life Technologies, Cat. No. 12648-010) were thawed and immediately diluted 10-fold into 37° C. assay medium (RPMI 1640+L-Glutamine & phenol red, Life Technologies, Cat. No. 11875-085; 0.5% heat inactivated fetal bovine serum, Sigma Aldrich, Cat. No. F4135; 1 mM Sodium Pyruvate, Life Technologies, Cat. No. 11360-070; lx non-essential amino acids; Life Technologies, Cat. No. 11140-050). The cell viability and count was ascertained using a Beckman Coulter V-Cell XR cell counter. The cell suspension was centrifuged at 200×g for 5 min at RT. Cells were resuspended to a density of 0.8×10^6/mL in 37° C. assay medium. Subsequent liquid transfers were performed using either a Matrix electronic multichannel pipette or an Agilent Bravo Automated Liquid Handling Platform.
The assay was started by dispensing 40 μL of the previously prepared cell suspension into the wells of the plate containing compounds. After 5 h incubation at 37° C., 5% CO2 in a humidified atmosphere, the plate of cells and compounds was centrifuged at 200×g for 5 min at RT. From each well, 5 μL of supernatant was transferred into corresponding wells of a white 384-well plate (Perkin Elmer, Cat. No. 6005620). To these supernatant-containing wells was added 10 μL of 5× Anti-Analyte Acceptor beads (50 μg/mL of AlphaLISA HiBlock Buffer) and incubated for 30 min at RT while shaking on an orbital plate shaker. To each well was added 10 μL of 5× Biotinylated Antibody Anti-analyte (5 nM in AlphaLISA HiBlock Buffer) and incubated on an orbital plate shaker for 60 min at RT or overnight at 4° C. To each well was added 25 μL of 2×SA-Donor beads (80 μg/mL in AlphaLISA HiBlock Buffer) and incubated for 30-45 min at RT in the dark while shaking on an orbital plate shaker. The plate was then read on a Perkin Elmer Envision (λex=680 nm, λem=570 nm). The percent effect of the AlphaLISA signal at each compound concentration was calculated based on 30 uM cGAMP positive controls and 0.3% DMSO negative controls. The plot of percent effect versus the log of compound concentration was fit with a 4-parameter concentration response equation to calculate EC50 values. The test compounds were tested at concentrations 30000, 10000, 3333, 1111, 370.4, 123.4, 41.2, 13.7, 4.6, and 1.5 nM with 0.3% residual DMSO. The control compound, cGAMP was tested at concentrations 100000, 33333, 11111, 3704, 1235, 412, 137, 46, and 15 nM with 0.3% residual DMSO.
Compounds of the disclosure were evaluated for IFN-β secretion in THP1 cell culture as described above. The following table tabulates the biological data for these compounds as percent activation relative to 2′3′-cGAMP at the 30 μM concentration.

For a further assay, the target named is full-length WT STING (Homo sapiens (Human), UniProt Q86WV6, H232R). Put plainly: 3H-cGAMP filtration binding assay (WT STING). As to conditions: WT STING membrane. Here is the method: The ability of compounds to bind STING is quantified by their ability to compete with tritiated cGAMP ligand for human STING receptor membrane using a radioactive filter-binding assay. The binding assay employs STING receptor obtained from Trichoplusia ni cell membranes (T.ni; Expression Systems, cat #94-002F, overexpressing full-length WT STING and tritiated cGAMP ligand.
The basic WT STING filtration assay protocol is as follows:
16 nM of [^3H] c-GAMP ligand was prepared by diluting into assay buffer, and 50 uL of this working stock was manually added to each well of the assay plate. After ligand addition, 2 uL of either titrated test compound, DMSO control (Sigma #276855), or cold cGAMP control was added to the appropriate wells using a BIOMEK FX. The serially titrated compound was prepared on a Hamilton STARPlus CORE in a 96-well plate (Greiner, #651201) using a 1:3 ten-point dose response format. Following compound addition, a 2.2 ug/ml working concentration of STING membrane (SEQ. ID. No. 3) was prepared by diluting concentrated membrane into assay buffer (1×PBS; Invitrogen #SH30028.02) and douncing 7× using a manual tissue homogenizer (Wheaton, #357546). 148 uL of this prepared membrane was then manually added to each well of a 96-well deep-well polypropylene plate (Fisher Scientific, #12-566-121). Compound, ligand, and membrane then incubated for 60 min at RT before the contents of each assay plate were filtered through a 96-well GF/B filter plate (PerkinElmer, #6005250) using a TOMTEC MACH III Cell Harvester equipped with 20 mM HEPES buffer (Fisher Scientific, #BP299500). The filter plates were then dried at 55° C. for 30 min using a pressurized VWR oven before 30 uL of ULTIMA GOLD F scintillate was added to each well. Tritium levels for each reaction well were then measured using a PerkinElmer TopCount plate reader.
After normalization to controls, the percent activity for each compound concentration was calculated by measuring the amount of remaining radioactivity. The plot of percent activity versus the log of compound concentration was fit with a 4-parameter dose response equation to calculate EC50 values.

The mark [1] stands for this setting: competition with tritiated cGAMP ligand, read-out: EC50.
The mark [2] stands for this setting: EC50, competition with tritiated cGAMP ligand.

Read-outs that look alike come from different tables or passages of the source.

Sequence of full-length WT STING (Q86WV6 whole entry, looked up, stated change not applied): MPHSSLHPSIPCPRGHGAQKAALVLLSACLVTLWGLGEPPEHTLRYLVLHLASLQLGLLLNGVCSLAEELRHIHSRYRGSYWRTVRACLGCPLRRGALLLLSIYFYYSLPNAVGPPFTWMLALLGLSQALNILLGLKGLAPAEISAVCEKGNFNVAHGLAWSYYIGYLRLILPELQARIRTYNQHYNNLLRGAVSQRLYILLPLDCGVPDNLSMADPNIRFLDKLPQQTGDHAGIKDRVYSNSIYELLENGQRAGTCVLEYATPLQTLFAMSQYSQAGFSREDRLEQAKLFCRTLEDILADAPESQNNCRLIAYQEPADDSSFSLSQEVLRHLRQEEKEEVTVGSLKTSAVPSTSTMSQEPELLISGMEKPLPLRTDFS

As for `Nc1nc2c(ncn2[C@@H]2O[C@@H]3COP(=S)(S)O[C@H]4C[C@H](n5cnc6c(N)ncnc65)O[C@@H]4COP(O)(=S)O[C@@H]2C3)c(=O)[nH]1` (single isomer, unassigned) [Example 4], in the assay on THP1 cells, the “% Effect at 30 μM relative to 2′3′-cGAMP” value came out at 146%. The EC50 on full-length WT STING (setting [1]) is less than 1 nM.

In the case of `Nc1nc2c(ncn2[C@@H]2O[C@@H]3COP(O)(=S)O[C@H]4C[C@H](n5cnc6c(N)ncnc65)O[C@@H]4COP(=S)(S)O[C@@H]2C3)c(=O)[nH]1` (single isomer, unassigned) [Example 10], the “% Effect at 30 μM relative to 2′3′-cGAMP” value in the assay on THP1 cells is 91%. It took 6 nM to reach a half-maximal effect at full-length WT STING (setting [2]) (EC50).

Turning to `Nc1nc2c(ncn2[C@@H]2O[C@@H]3COP(O)(=S)O[C@H]4C[C@H](n5cnc6c(N)ncnc65)O[C@@H]4COP(=S)(S)O[C@@H]2C3)c(=O)[nH]1` (single isomer, unassigned) [Example 11], the “% Effect at 30 μM relative to 2′3′-cGAMP” value in the assay on THP1 cells is 51%. Moreover, on full-length WT STING (setting [2]), the EC50 was determined as 34 nM.

Turning to `Nc1nc2c(ncn2[C@@H]2O[C@@H]3COP(O)(=S)O[C@H]4[C@H](F)[C@H](n5cnc6c(N)ncnc65)O[C@@H]4COP(=S)(S)O[C@@H]2[C@@H]3F)c(=O)[nH]1` (single isomer, unassigned) [Example 12], the “% Effect at 30 μM relative to 2′3′-cGAMP” value in the assay on THP1 cells is reported as 116%. In addition, the EC50 on full-length WT STING (setting [1]) was 171 nM.

For the compound `Nc1nc2c(ncn2[C@@H]2O[C@@H]3COP(O)(=S)O[C@H]4[C@H](F)[C@H](n5cnc6c(N)ncnc65)O[C@@H]4COP(=S)(S)O[C@@H]2[C@@H]3F)c(=O)[nH]1` (single isomer, unassigned) [Example 13], in the assay with THP1 cells, the “% Effect at 30 μM relative to 2′3′-cGAMP” value amounted to 95%. The EC50 on full-length WT STING (setting [1]) was found to be 223 nM.

Regarding `Nc1nc2c(ncn2[C@@H]2O[C@@H]3COP(O)(=S)O[C@H]4C[C@H](n5ccc6c(N)ncnc65)O[C@@H]4COP(=S)(S)O[C@@H]2C3)c(=O)[nH]1` (single isomer, unassigned) [Example 14], in the assay with THP1 cells, the activation at 30 µM is 422%. Further, the EC50 at full-length WT STING (setting [1]) worked out at 244 nM.

Turning to `Nc1nc2c(ncn2[C@@H]2O[C@@H]3COP(O)(=S)O[C@H]4[C@H]5OC[C@]4(COP(=S)(S)O[C@@H]2[C@H]3F)O[C@H]5n2cnc3c(N)ncnc32)c(=O)[nH]1` (single isomer, unassigned) [Example 15], the activation at 30 µM with THP1 cells stood at 357%. At full-length WT STING (setting [1]), the EC50 was found to be 79 nM.

As to `Nc1nc2c(ncn2[C@@H]2O[C@@H]3COP(=S)(S)O[C@H]4C[C@H](n5cnc6c(=O)[nH]cnc65)O[C@@H]4COP(O)(=S)O[C@@H]2C3)c(=O)[nH]1` (single isomer, unassigned) [Example 24], the “% Effect at 30 μM relative to 2′3′-cGAMP” value in the assay on THP1 cells worked out at 168%. Also, the EC50 at full-length WT STING (setting [1]) worked out at 19 nM.

With `Nc1nc2c(ncn2[C@@H]2O[C@@H]3COP(=S)(S)O[C@H]4C[C@H](n5cnc6c(=O)[nH]cnc65)O[C@@H]4COP(O)(=S)O[C@@H]2C3)c(=O)[nH]1` (single isomer, unassigned) [Example 25], the “% Effect at 30 μM relative to 2′3′-cGAMP” value in the assay on THP1 cells turned out to be 281%. Further, the EC50 at full-length WT STING (setting [1]) worked out at 2 nM.

Turning to `Nc1nc2c(ncn2[C@@H]2O[C@@H]3COP(=S)(S)O[C@H]4C[C@H](n5cnc6c(N)ncnc65)O[C@@H]4COP(=O)(O)O[C@@H]2C3)c(=O)[nH]1` (stereo partly drawn) [Example 18, 2-amino-9-[(5S,7R,8R,12aR,14R,15aS)-14-(6-amino-9H-purin-9-yl)-10-hydroxy-10-oxido-2-sulfanyl-2-sulfidooctahydro-12H-5,8-methanofuro[3,2-1][1,3,6,9,11,2,10]pentaoxadiphosphacyclotetradecin-7-yl]-1,9-dihydro-6H-purin-6-one], the activation at 30 µM in the assay with THP1 cells amounted to 153%. The EC50 at full-length WT STING (setting [1]) stood at 1 nM.

Take `Nc1nc2c(ncn2[C@@H]2O[C@@H]3COP(=S)(S)O[C@H]4[C@H](F)[C@H](n5cnc6c(N)ncnc65)O[C@@H]4COP(=O)(O)O[C@@H]2[C@@H]3F)c(=O)[nH]1` (stereo partly drawn) [Example 19, 2-amino-9-[(5R,7R,8S,12aR,14R,15S, 15aR,16R)-14-(6-amino-9H-purin-9-yl)-15,16-difluoro-10-hydroxy-10-oxido-2-sulfanyl-2-sulfidooctahydro-12H-5,8-methanofuro[3,2-1][1,3,6,9,11,2,10]pentaoxadiphosphacyclotetradecin-7-yl]-1,9-dihydro-6H-purin-6-one]: in the assay with THP1 cells, the activation at 30 µM was 250%. In addition, the EC50 at full-length WT STING (setting [1]) was 1 nM.

Regarding `Nc1nc2c(ncn2[C@@H]2O[C@@H]3COP(=O)(O)O[C@H]4[C@H](F)[C@H](n5cnc6c(N)ncnc65)O[C@@H]4COP(=S)(S)O[C@@H]2[C@@H]3F)c(=O)[nH]1` (stereo partly drawn) [Example 22, 2-amino-9-[(5R,7R,8S,12aR,14R,15S,15aR,16R)-14-(6-amino-9H-purin-9-yl)-15,16-difluoro-2-hydroxy-2-oxido-10-sulfanyl-10-sulfidooctahydro-12H-5,8-methanofuro[3,2-l][1,3,6,9,11,2,10]pentaoxadiphosphacyclotetradecin-7-yl]-1,9-dihydro-6H-purin-6-one], in the assay on THP1 cells, the activation at 30 µM came to 117%. The same compound registered an EC50 on full-length WT STING (setting [2]) of 517 nM.

With `Nc1nc2c(ncn2[C@@H]2O[C@@H]3COP(=O)(O)O[C@H]4C[C@H](n5cnc6c(N)ncnc65)O[C@@H]4COP(=S)(S)O[C@@H]2C3)c(=O)[nH]1` (stereo partly drawn) [Example 23, 2-amino-9-[(5S,7R,8R,12aR,14R,15aS)-14-(6-amino-9H-purin-9-yl)-2-hydroxy-2-oxido-10-sulfanyl-10-sulfidooctahydro-12H-5,8-methanofuro[3,2-1] [1,3,6,9,11,2,10]pentaoxadiphosphacyclotetradecin-7-yl]-1,9-dihydro-6H-purin-6-one], in the assay on THP1 cells, the activation at 30 µM came out at 152%. Further, the EC50 on full-length WT STING (setting [1]) came to 69 nM.

As for `Nc1nc2c(ncn2[C@@H]2O[C@@H]3COP(=S)(S)O[C@H]4[C@H](F)[C@H](n5cnc6c(=O)[nH]cnc65)O[C@@H]4COP(O)(=S)O[C@@H]2[C@@H]3F)c(=O)[nH]1` (stereo partly drawn) [Example 27, 2-amino-9-[(5R,7R,8S,12aR,14R,15S,15aR,16R)-15,16-difluoro-10-hydroxy-14-(6-oxo-1,6-dihydro-9H-purin-9-yl)-2-sulfanyl-2,10-disulfidooctahydro-12H-5,8-methanofuro[3,2-1][1,3,6,9,11,2,10]pentaoxadiphosphacyclotetradecin-7-yl]-1,9-dihydro-6H-purin-6-one], in the assay on THP1 cells, the activation at 30 µM was determined as 164%.
